The source of these data is patent publication US8680113B2, “BMI-1 protein expression modulators” (PTC Therapeutics, Inc., priority 2008, dated 2014).

For this assay, the system named is Bmi-1. Nature of the assay: Sandwich ELISA Assay (Bmi-1 ELISA in HT-1080 cells). The assay is classed as cell-based, human. An outline of the steps:
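Lysate Bmi-1 was quantified against a recombinant GST-Bmi-1 standard (0-8000 pg/mL) by sandwich ELISA read at OD450 with OD570 reference. The ELISA used mouse monoclonal capture, rabbit anti-Bmi-1, HRP anti-rabbit IgG and TMB. Before lysis, HT-1080 cells seeded at 8000/well were exposed to compounds for 40-48 h at 37°C with 0.5% final DMSO.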
In the case of `Cc1nc2c(Br)cccn2c1-c1csc(Nc2ccc3c(c2)OCO3)n1` [Cpd 235, N-(1,3-benzodioxol-5-yl)-4-(8-bromo-2-methylimidazo[1,2-a]pyridin-3-yl)-1,3-thiazol-2-amine], the IC50 is less than 500 nM. Next, `COc1cccc(Nc2nc(-c3c(C)nc4ccc(F)cn34)cs2)c1` [Cpd 236, 4-(6-fluoro-2-methylimidazo[1,2-a]pyridin-3-yl)-N-(3-methoxyphenyl)-1,3-thiazol-2-amine]: less than 500 nM; `Cc1ccc(Nc2nc(-c3c(C)nc4ccc(F)cn34)cs2)cc1` [Cpd 237, 4-(6-fluoro-2-methylimidazo[1,2-a]pyridin-3-yl)-N-(4-methylphenyl)-1,3-thiazol-2-amine]: less than 500 nM; `Cc1nc2ccc(F)cn2c1-c1csc(Nc2c(Br)cccc2Br)n1` [Cpd 239, N-(2,6-dibromophenyl)-4-(6-fluoro-2-methylimidazo[1,2-a]pyridin-3-yl)-1,3-thiazol-2-amine]: less than 500 nM. `Cc1nc2cc(Cl)ccn2c1-c1csc(Nc2ccc(Cl)cc2)n1` [Cpd 240, 4-(7-chloro-2-methylimidazo[1,2-a]pyridin-3-yl)-N-(4-chlorophenyl)-1,3-thiazol-2-amine] showed an IC50 of less than 500 nM. As for `COc1ccc(Nc2nc(-c3c(C)nc4cc(Cl)ccn34)cs2)cc1` [Cpd 241, 4-(7-chloro-2-methylimidazo[1,2-a]pyridin-3-yl)-N-(4-methoxyphenyl)-1,3-thiazol-2-amine], the 50% inhibitory concentration (IC50) was less than 500 nM. `Cc1nc2cc(Cl)ccn2c1-c1csc(Nc2ccc(N(C)C)cc2)n1` [Cpd 242, N′-[4-(7-chloro-2-methylimidazo[1,2-a]pyridin-3-yl)-1,3-thiazol-2-yl]-N,N-dimethylbenzene-1,4-diamine] gave an IC50 of less than 500 nM. As to `Cc1ccc(Nc2nc(-c3c(C)nc4cc(Cl)ccn34)cs2)cc1` [Cpd 243, 4-(7-chloro-2-methylimidazo[1,2-a]pyridin-3-yl)-N-(4-methylphenyl)-1,3-thiazol-2-amine], the IC50 was less than 500 nM. Under `CC(=O)c1ccc(Nc2nc(-c3c(C)nc4cc(Cl)ccn34)cs2)cc1` [Cpd 244, 1-(4-{[4-(7-chloro-2-methylimidazo[1,2-a]pyridin-3-yl)-1,3-thiazol-2-yl]amino}phenyl)ethanone] stands less than 500 nM; under `COc1ccc(Nc2nccc(-c3cnc4ccccn34)n2)cc1` [Cpd 245, 4-(imidazo[1,2-a]pyridin-3-yl)-N-(4-methoxyphenyl)pyrimidin-2-amine], less than 500 nM; under `Clc1cccc(Nc2nccc(-c3cnc4ccccn34)n2)c1` [Cpd 246, N-(3-chlorophenyl)-4-(imidazo[1,2-a]pyridin-3-yl)pyrimidin-2-amine], less than 500 nM. The molecule `Clc1ccccc1Nc1nccc(-c2cnc3ccccn23)n1` [Cpd 247, N-(2-chlorophenyl)-4-(imidazo[1,2-a]pyridin-3-yl)pyrimidin-2-amine] showed an IC50 of 500 to 1000 nM. `Fc1ccc(Nc2nccc(-c3cnc4ccccn34)n2)cc1` [Cpd 248, N-(4-fluorophenyl)-4-(imidazo[1,2-a]pyridin-3-yl)pyrimidin-2-amine] registered a concentration for half-maximal inhibition (IC50) of less than 500 nM. In the case of `COc1cc(Br)c(Nc2nccc(-c3cnc4ccccn34)n2)c(Br)c1` [Cpd 249, N-(2,6-dibromo-4-methoxyphenyl)-4-(imidazo[1,2-a]pyridin-3-yl)pyrimidin-2-amine], the IC50 was less than 500 nM. `CC(=O)c1ccc(Nc2nccc(-c3cnc4ccccn34)n2)cc1` [Cpd 250, 1-(4-{[4-(imidazo[1,2-a]pyridin-3-yl)pyrimidin-2-yl]amino}phenyl)ethanone] returned an IC50 of less than 500 nM.

On to `c1ccn2c(-c3ccnc(Nc4ccc5c(c4)OCO5)n3)cnc2c1` [Cpd 251, N-(1,3-benzodioxol-5-yl)-4-(imidazo[1,2-a]pyridin-3-yl)pyrimidin-2-amine], for which the half-inhibitory concentration (IC50) is less than 500 nM. Consider `CCOc1ccc(Nc2nccc(-c3cnc4ccccn34)n2)cc1` [Cpd 252, N-(4-ethoxyphenyl)-4-(imidazo[1,2-a]pyridin-3-yl)pyrimidin-2-amine], for which the half-inhibitory concentration (IC50) is less than 500 nM. `CCN(CC)c1ccc(Nc2nccc(-c3cnc4ccccn34)n2)cc1` [Cpd 253, N,N-diethyl-N′-[4-(imidazo[1,2-a]pyridin-3-yl)pyrimidin-2-yl]benzene-1,4-diamine] had an IC50 of less than 500 nM. `CN(C)c1ccc(Nc2nccc(-c3cnc4ccccn34)n2)cc1` [Cpd 254, N′-[4-(imidazo[1,2-a]pyridin-3-yl)pyrimidin-2-yl]-N,N-dimethylbenzene-1,4-diamine]: the IC50 is less than 500 nM. With `Fc1cccc(Nc2nccc(-c3cnc4ccccn34)n2)c1` [Cpd 255, N-(3-fluorophenyl)-4-(imidazo[1,2-a]pyridin-3-yl)pyrimidin-2-amine], the IC50 was less than 500 nM. `Brc1cccc(Nc2nccc(-c3cnc4ccccn34)n2)c1` [Cpd 256, N-(3-bromophenyl)-4-(imidazo[1,2-a]pyridin-3-yl)pyrimidin-2-amine] gave an IC50 of less than 500 nM. Under `COc1cc(Br)c(Nc2nccc(-c3cnc4ncccn34)n2)c(Br)c1` [Cpd 257, N-(2,6-dibromo-4-methoxyphenyl)-4-(imidazo[1,2-a]pyrimidin-3-yl)pyrimidin-2-amine] stands less than 500 nM. Molecule `c1cnc2ncc(-c3ccnc(Nc4ccc5c(c4)OCO5)n3)n2c1` [Cpd 259, N-(1,3-benzodioxol-5-yl)-4-(imidazo[1,2-a]pyrimidin-3-yl)pyrimidin-2-amine] gave an IC50 of less than 500 nM. Next, `COc1cccc(Nc2nccc(-c3cnc4ncccn34)n2)c1` [Cpd 260, 4-(imidazo[1,2-a]pyrimidin-3-yl)-N-(3-methoxyphenyl)pyrimidin-2-amine]: less than 500 nM. With `COc1ccc(Nc2nccc(-c3cnc4ncccn34)n2)cc1` [Cpd 261, 4-(imidazo[1,2-a]pyrimidin-3-yl)-N-(4-methoxyphenyl)pyrimidin-2-amine], the IC50 is less than 500 nM.

`CCOc1ccc(Nc2nccc(-c3cnc4ncccn34)n2)cc1` [Cpd 262, N-(4-ethoxyphenyl)-4-(imidazo[1,2-a]pyrimidin-3-yl)pyrimidin-2-amine] displayed an IC50 of less than 500 nM. Next, `CCN(CC)c1ccc(Nc2nccc(-c3cnc4ncccn34)n2)cc1` [Cpd 263, N,N-diethyl-N′-[4-(imidazo[1,2-a]pyrimidin-3-yl)pyrimidin-2-yl]benzene-1,4-diamine]: less than 500 nM. Next, `CN(C)c1cccc(Nc2nccc(-c3cnc4ncccn34)n2)c1` [Cpd 264, N′-[4-(imidazo[1,2-a]pyrimidin-3-yl)pyrimidin-2-yl]-N,N-dimethylbenzene-1,3-diamine]: less than 500 nM; `CN(C)c1ccc(Nc2nccc(-c3cnc4ncccn34)n2)cc1` [Cpd 265, N′-[4-(imidazo[1,2-a]pyrimidin-3-yl)pyrimidin-2-yl]-N,N-dimethylbenzene-1,4-diamine]: 500 to 1000 nM. Molecule `Fc1ccccc1Nc1nccc(-c2cnc3ncccn23)n1` [Cpd 266, N-(2-fluorophenyl)-4-(imidazo[1,2-a]pyrimidin-3-yl)pyrimidin-2-amine] returned an IC50 of less than 500 nM. As to `Fc1cccc(Nc2nccc(-c3cnc4ncccn34)n2)c1` [Cpd 267, N-(3-fluorophenyl)-4-(imidazo[1,2-a]pyrimidin-3-yl)pyrimidin-2-amine], the IC50 is less than 500 nM. With `Fc1ccc(Nc2nccc(-c3cnc4ncccn34)n2)cc1` [Cpd 268, N-(4-fluorophenyl)-4-(imidazo[1,2-a]pyrimidin-3-yl)pyrimidin-2-amine], the IC50 was less than 500 nM.
